# Columns and labels:
# [1] = 28-day toxicity study in dogs; format: in vivo; conditions: 28-day study, dog
# Protocol: […]. Two 28-days toxicity studies were conducted to determine no observed adverse effect level (NOAEL) for Sprague-Dawley rats and beagle dogs. […].
# [2] = Genotoxicity tests (Ames, mammalian cell gene mutation, micronucleus, erythrocyte micronucleus)
# [3] = Phase 1 clinical study: pharmacokinetics; format: in vivo
# Protocol: (§1) A first-in-human phase 1 study was performed to determine the MTD and to evaluate PK, safety/tolerability and efficacy profiles of exemplary Compound 1 in NSCLC patients who are refractory to conventional treatment modalities. This open-label, non-randomized, dose-escalation study, which completed in February 2013, enrolled a total of 13 patients; seven males and six females, all of whom were Asian. A total of five patients were enrolled an accelerated titration phase (one patient each in the 50, 100, 200, 300, and 450 mg dose groups) and eight patients were enrolled in a standard titration phase (three patients in the 450 mg dose group and five patients in the 600 mg dose group).
# Compound 1 will be administered as a single agent in this study at a dose of 600 mg per day (200 mg t.i.d. administered at 8-hour intervals). This dose regimen was chosen based on results from the Phase 1 clinical study involving NSCLC patients refractory to conventional treatment modalities, which reported good tolerability of Compound 1 up to 600 mg/day.
# [4] = Preclinical pharmacokinetic studies; format: in vivo; conditions: preclinical PK studies
# NSCLC = experiment: Phase 1 clinical study: efficacy (tumor overall response); format: in vivo, human; conditions: end of treatment
# Protocol: as §1
# The PPS was defined in the Phase 1 study as all patients who completed at least three cycles of treatment with proper imaging assessment (RECIST v.1.1).
# [5] = Tissue distribution in rat; format: in vivo; conditions: previous study
# [6] = 7-day toxicity study in rats; conditions: Sprague-Dawley, rat, in vivo, 7-day study, read-out: maximum tolerated dose (MTD)
# [7] = Safety pharmacology: cardiovascular effect; format: in vivo; conditions: beagle dogs
# [8] = test system: different cancer cell lines; experiment: Cancer cell death, IC50; format: cell-based
# Source text: Compound 1 inhibited isoprenyltransferase activity and molecular docking analysis predicted that the isoprene unit and the 4′-hydroxy group of Compound 1 may play important roles in the interaction between Compound 1 and isoprenyltransferase. In addition, Compound 1 increased the expression level of beclin-1 (three-fold), LC3-II/I (P<0.01) and […] formation in lung cancer cells. Compound 1 may therefore inhibit Ras activation through inhibition of isoprenyltransferase, leading to autophagic cell death.
# [9] = Reproductive toxicity in vivo study; conditions: up to 80 mg/kg/day, Sprague-Dawley rats
# hERG ion channel = hERG ion channel (Homo sapiens, UniProt Q12809); experiment: Safety pharmacology: binding activity with hERG ion channel in vitro
# hERG ion channel, sequence (Q12809 whole entry): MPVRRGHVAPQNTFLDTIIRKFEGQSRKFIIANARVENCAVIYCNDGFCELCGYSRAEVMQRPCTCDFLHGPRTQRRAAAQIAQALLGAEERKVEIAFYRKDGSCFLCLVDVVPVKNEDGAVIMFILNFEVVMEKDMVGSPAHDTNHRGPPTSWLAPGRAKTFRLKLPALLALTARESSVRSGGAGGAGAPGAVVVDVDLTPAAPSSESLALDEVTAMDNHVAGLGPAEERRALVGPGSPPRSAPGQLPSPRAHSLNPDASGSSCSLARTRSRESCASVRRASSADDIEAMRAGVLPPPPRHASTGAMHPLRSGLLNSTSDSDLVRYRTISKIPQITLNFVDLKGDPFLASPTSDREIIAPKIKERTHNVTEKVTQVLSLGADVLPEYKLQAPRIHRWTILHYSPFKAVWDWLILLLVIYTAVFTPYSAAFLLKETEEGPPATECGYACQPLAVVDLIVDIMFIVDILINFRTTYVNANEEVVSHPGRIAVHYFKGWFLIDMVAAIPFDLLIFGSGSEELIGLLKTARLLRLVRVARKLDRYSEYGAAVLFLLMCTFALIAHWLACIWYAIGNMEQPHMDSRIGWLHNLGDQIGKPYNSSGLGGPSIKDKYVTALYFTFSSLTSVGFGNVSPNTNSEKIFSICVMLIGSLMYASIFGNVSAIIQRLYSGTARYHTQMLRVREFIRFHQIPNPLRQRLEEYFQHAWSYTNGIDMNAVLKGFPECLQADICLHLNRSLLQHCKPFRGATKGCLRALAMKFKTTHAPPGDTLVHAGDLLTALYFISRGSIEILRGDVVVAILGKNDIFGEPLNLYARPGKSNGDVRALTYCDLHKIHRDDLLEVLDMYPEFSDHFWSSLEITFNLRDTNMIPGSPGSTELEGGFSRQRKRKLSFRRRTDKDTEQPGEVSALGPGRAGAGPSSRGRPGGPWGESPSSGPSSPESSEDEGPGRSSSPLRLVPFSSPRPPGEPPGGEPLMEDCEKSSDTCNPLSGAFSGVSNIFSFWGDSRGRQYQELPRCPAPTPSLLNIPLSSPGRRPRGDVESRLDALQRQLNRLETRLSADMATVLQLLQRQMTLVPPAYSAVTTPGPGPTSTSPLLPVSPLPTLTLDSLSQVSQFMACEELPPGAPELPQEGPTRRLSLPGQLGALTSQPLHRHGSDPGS
# [10] = 7-day toxicity study in dogs; conditions: beagle, dog, in vivo, 7-day study, read-out: maximum tolerated dose (MTD)
# [11] = Safety pharmacology: respiratory system effect; format: in vivo; conditions: Sprague-Dawley rat
# [12] = Phase 1 clinical study: safety/tolerability; format: in vivo
# Protocol: as §1
# [13] = Toxicokinetic evaluations in rats and dogs; format: in vivo; conditions: for dose proportionality of exposure: rat and dog
# Protocol: Toxicokinetic evaluations were performed on a 7-day dog study (100, 250, 500 mg/kg/day single dose, 500 mg/kg/day 3 days dose) and the two 28-day studies mentioned above (Rat: 10, 30, 100 mg/kg/day single and 28 days dose; Dog: 10, 30, 100 mg/kg/day single and 28 days dose).
# [14] = Safety pharmacology: central nervous system effect; format: in vivo; conditions: Sprague-Dawley rat
# [15] = test system: stage IV (including pleural effusion) non-squamous NSCLC; experiment: Phase II study in stage IV non-squamous NSCLC patients; format: in vivo, human
# Source text: This is a single-arm, open-label, Phase II study in KRAS-positive and KRAS-negative patients with stage IV (including pleural effusion) non-squamous NSCLC who have failed two lines of anti-cancer therapy. This is defined as patients with radiologically confirmed disease progression following greater than or equal to two, but less than or equal to four, prior lines of systemic anti-cancer therapy. A maximum of 60 evaluable patients with NSCLC will receive Compound 1, of which 30 patients will be KRAS-positive and 30 patients KRAS-negative. An evaluable patient will have received at least one dose of Compound 1 and have a valid baseline tumor assessment. Enrollment will continue until the target number of evaluable patients has been enrolled.
# Written informed consent must be obtained from all patients before initiating Screening. The Screening period will be up to 42 days in duration (Days −42 to −1). Following completion of all Screening assessments and confirmation of eligibility criteria, patients will receive Compound 1 200 mg three-times-a-day (t.i.d. at 8-hour intervals) on Day 0 for 12 weeks (one treatment cycle) or until documented evidence of disease progression, unacceptable toxicity, non-compliance or withdrawal of consent by the patient, or the investigator decides to discontinue treatment, whichever comes first. Study drug should be taken at 8-hour intervals. The time of study drug administration should be recorded in the patient diary.
# The primary efficacy endpoint is progression-free survival (PFS) rate at 12 weeks, which is defined as the proportion of patients alive and progression-free at Week 12. Patients will be progression-free if they have no evidence of progressive disease (defined according to RECIST guidelines, version 1.1) from the start of treatment to Week 12.
# The primary endpoint is the PFS rate at 12 weeks, defined as the proportion of patients alive and progression-free at Week 12. […]
# Tumor response will be assessed at 6-week intervals during the first treatment cycle using the RECIST criteria version 1.1. […]
# [16] = 28-day toxicity study in rats; format: in vivo; conditions: rat
# Protocol: . Two 28-days toxicity studies were conducted to determine no observed adverse effect level (NOAEL) for Sprague-Dawley rats and beagle dogs. […]
# [17] = test system: epidermal growth factor receptor (EGFR); conditions: human, in vivo; cited from earlier work
smiles,measurement,setting,value
"COC1=C(OC)C(O)C(C/C=C(\C)CC/C=C(\C)CCC=C(C)C)C(C)C1=O (stereo not shown) [Compound 1, 4-hydroxy-2,3-dimethoxy-6-methyl-5-(3,7,11-trimethyldodeca-2,6,10-trienyl)cyclohex-2-enone]",highest non-severely toxic dose (HNSTD),[1],30 mg/kg/day
same,genotoxicity,[2],No genotoxicity
same,differences in AUC0-24 within the 100-300 mg dose range,[3]; Day 1 and Day 28,no significant differences
same,proportionality of AUC0-24 to dose,[3]; Day 1 and Day 28,not linearly proportional
same,dose with the highest peak concentration (Cmax) over the 100-300 mg dose range,[3]; Day 28,200 mg
same,extent of absorption versus dose,"[3]; human, in vivo",dose proportional
same,rate and extent of absorption versus dose,"[3]; human, in vivo",increased in a dose proportional manner
same,rate of absorption versus dose,"[3]; human, in vivo",non-dose proportional
same,absorption,[4],fast absorption
same,metabolism profile,[4],CYP involved metabolism
same,organ distribution,[4],"substantial organ distribution especially in the lung, heart, and kidney"
same,proportion of Per-Protocol patients with stable disease,NSCLC,100%
same,tissue with the highest accumulation,[5],lung tissue
same,MTD at 7 days,[6],100 mg/kg/day
same,cardiovascular effect,[7],no particular safety concerns
same,IC50,[8],2.22 to 6.42 µM
same,reproductive toxicity,[9],no reproductive toxicity
same,binding activity with hERG ion channel,hERG ion channel,no particular safety concerns
same,MTD at 7 days,[10],100 mg/kg/day
same,respiratory system effect,[11],no particular safety concerns
same,patients with Grade 3 TEAEs,"[12]; 200 mg vertigo, 450 mg decreased appetite and encephalitis, unrelated to study drug",two
same,laboratory abnormality recorded as a TEAE,"[12]; 450 mg dose group, considered unrelated to study drug",one case of hematuria of Grade 1
same,patients with treatment-related TEAEs,[12]; 13 patients treated,100%
same,Dose Limiting Toxicities (DLTs),"[12]; 50, 100, 200, 300, 450, 600 mg, Intent-to-Treat Population",No Dose Limiting Toxicities
same,toxicity profile,[12]; 50-600 mg dose levels,low toxicity profile
same,safety and tolerability,"[12]; 50-600 mg dose levels, daily for 4 weeks",generally safe and well tolerated
same,"clinically significant changes in vital sign, ECG and physical examination parameters",[12]; Follow-Up Visit,None of the patients
same,"diarrhea, patients",[12]; Grade 1,69.2%
same,"gastrointestinal disorders, patients",[12]; Grade 1,53.8%
same,"nausea, patients",[12]; Grade 1,46.2%
same,"vomiting, patients",[12]; Grade 1,46.2%
same,"diarrhea, patients",[12]; Grade 2,7.7%
same,"gastrointestinal disorders, patients",[12]; Grade 2,38.5%
same,"nausea, patients",[12]; Grade 2,7.7%
same,"vomiting, patients",[12]; Grade 2,23.1%
same,Grade 4 treatment-emergent adverse events (TEAEs),[12]; NCI-CTCAE Version 4.03,No Grade 4
same,"diarrhea, patients",[12]; all grades,76.9%
same,"gastrointestinal disorders, patients",[12]; all grades,92.3%
same,"nausea, patients",[12]; all grades,53.8%
same,"vomiting, patients",[12]; all grades,69.2%
same,ECOG score,[12]; all patients at all time points except two patients in the 450 mg group (scores 4 and 2),1
same,patients reporting serious adverse events (SAEs),"[12]; two each at 450 and 600 mg, none related to study drug",four
same,Tmax,"[13]; Sprague-Dawley (rat), beagle (dog), rat, dog, in vivo, rats and dogs, 7-day and 28-day studies, read-out: peak time (Tmax)",0.25 to 6 h
same,dose proportionality of exposure,[13]; after 1 day of treatment,trend of dose proportionality
same,dose proportionality of exposure,[13]; after 28 days of treatment,inconsistent phenomena
same,central nervous system effect,[14],no particular safety concerns
same,subjects alive or progression free at 12 week,"[15]; 200 mg t.i.d., overall population",4 subjects out of 20
same,tumor progression free rate or proportion of patients alive at 12 weeks,"[15]; KRAS mutant patients, 200 mg t.i.d.",3/14
same,efficacy for target and non-target lesions at lung related sites,[15]; preliminary phase 2 result,5/11
same,toxicity of the high dose,"[16]; 28-day study, 100 mg/kg/day",not severely toxic
same,NOAEL at 28 days,"[16]; Sprague-Dawley, in vivo",30 mg/kg/day
C#Cc1cccc(Nc2ncnc3cc(OCCOC)c(OCCOC)cc23)c1 [erlotinib],response rate,[17],60%

# — patent US11786485B2, “Methods and compositions for treating advanced stage non-small cell lung cancer” (Golden Biotechnology Corporation, priority 2016, dated 2023)
